Source: ChEMBL document CHEMBL4118085, “Plasma Kallikrein Inhibitors for the Treatment of Retinal Vascular Permeability Associated with Diabetic Retinopathy and Diabetic Macular Edema” (ACS Med Chem Lett, 2017)

Molecular target: Plasma kallikrein (Homo sapiens, UniProt P03952)
Experiment: Inhibition of human plasma kallikrein using H-Pro-Phe-Arg-AMC as substrate after 1 hr by fluorescence assay

Plasma kallikrein, sequence (P03952 20-390 limits assumed): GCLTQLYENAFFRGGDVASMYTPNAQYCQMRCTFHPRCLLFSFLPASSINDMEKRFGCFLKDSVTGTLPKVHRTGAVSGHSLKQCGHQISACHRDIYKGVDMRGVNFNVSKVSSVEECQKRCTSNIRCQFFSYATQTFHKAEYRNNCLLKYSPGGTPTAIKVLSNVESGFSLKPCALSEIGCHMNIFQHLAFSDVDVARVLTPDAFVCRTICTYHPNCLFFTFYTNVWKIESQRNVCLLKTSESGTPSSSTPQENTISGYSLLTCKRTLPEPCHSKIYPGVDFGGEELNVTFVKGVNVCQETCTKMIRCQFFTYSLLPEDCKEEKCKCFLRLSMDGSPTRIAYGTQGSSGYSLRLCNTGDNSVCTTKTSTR
Plasma kallikrein, sequence (P03952 391-638 limits assumed): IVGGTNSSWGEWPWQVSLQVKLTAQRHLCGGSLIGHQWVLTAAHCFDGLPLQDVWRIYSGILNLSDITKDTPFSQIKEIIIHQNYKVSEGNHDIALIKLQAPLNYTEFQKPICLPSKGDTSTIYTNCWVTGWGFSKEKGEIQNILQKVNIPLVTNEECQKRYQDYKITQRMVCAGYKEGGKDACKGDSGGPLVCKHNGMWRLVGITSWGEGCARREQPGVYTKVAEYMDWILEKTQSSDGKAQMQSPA

SMILES: C[C@H]1CCN(c2ccc(Cn3cc(C(=O)N[C@@H]4CCc5nc(N)ccc54)cn3)cn2)C1
- IC50: 19 nM

SMILES: Cc1cc(N)nc2c1C(NC(=O)c1cnn(Cc3ccc(Cn4ccccc4=O)cc3)c1)CC2 (stereo not given)
- IC50: 4 nM

SMILES: Cc1cnn(Cc2ccc(Cn3nc(C(=O)N[C@@H]4CCc5c4ccnc5N)cc3C(F)(F)F)cc2)c1
- IC50: 1 nM

SMILES: Cc1ccc2cc(Cn3cc(C(=O)N[C@H]4CCc5nc(N)ccc54)nn3)ccc2n1
- IC50: 1900 nM

SMILES: Nc1ccc2c(n1)CCC2NC(=O)c1cnn(Cc2ccc(Cn3ccccc3=O)cc2)c1 (stereo not given)
- IC50: 9 nM
